Measured values taken from patent US10758534B2 (Vertex Pharmaceuticals Incorporated, priority 2014, dated 2020).

Target: T1, F508del (Homo sapiens, UniProt P13569, DEL508-508)
T1 construct: expressed in transfected cells
Assay: Protocol 2: FRET membrane potential optical assay (VIPR), identification of correction compounds
Assay type: cell-based
Settings: F508del CFTR modulator activity; compounds of Table 1; read-out: EC30
Summary of the method: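 Correction of the F508del trafficking defect is scored as forskolin (10 μM)/genistein (20 μM)-stimulated Cl^− efflux in NIH3T3 mouse fibroblasts after a 16 hr, 37° C. compound exposure. Depolarization was followed optically using voltage-sensing FRET dyes.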

T1 sequence (P13569 with tags, fused parts or gaps DEL508-508): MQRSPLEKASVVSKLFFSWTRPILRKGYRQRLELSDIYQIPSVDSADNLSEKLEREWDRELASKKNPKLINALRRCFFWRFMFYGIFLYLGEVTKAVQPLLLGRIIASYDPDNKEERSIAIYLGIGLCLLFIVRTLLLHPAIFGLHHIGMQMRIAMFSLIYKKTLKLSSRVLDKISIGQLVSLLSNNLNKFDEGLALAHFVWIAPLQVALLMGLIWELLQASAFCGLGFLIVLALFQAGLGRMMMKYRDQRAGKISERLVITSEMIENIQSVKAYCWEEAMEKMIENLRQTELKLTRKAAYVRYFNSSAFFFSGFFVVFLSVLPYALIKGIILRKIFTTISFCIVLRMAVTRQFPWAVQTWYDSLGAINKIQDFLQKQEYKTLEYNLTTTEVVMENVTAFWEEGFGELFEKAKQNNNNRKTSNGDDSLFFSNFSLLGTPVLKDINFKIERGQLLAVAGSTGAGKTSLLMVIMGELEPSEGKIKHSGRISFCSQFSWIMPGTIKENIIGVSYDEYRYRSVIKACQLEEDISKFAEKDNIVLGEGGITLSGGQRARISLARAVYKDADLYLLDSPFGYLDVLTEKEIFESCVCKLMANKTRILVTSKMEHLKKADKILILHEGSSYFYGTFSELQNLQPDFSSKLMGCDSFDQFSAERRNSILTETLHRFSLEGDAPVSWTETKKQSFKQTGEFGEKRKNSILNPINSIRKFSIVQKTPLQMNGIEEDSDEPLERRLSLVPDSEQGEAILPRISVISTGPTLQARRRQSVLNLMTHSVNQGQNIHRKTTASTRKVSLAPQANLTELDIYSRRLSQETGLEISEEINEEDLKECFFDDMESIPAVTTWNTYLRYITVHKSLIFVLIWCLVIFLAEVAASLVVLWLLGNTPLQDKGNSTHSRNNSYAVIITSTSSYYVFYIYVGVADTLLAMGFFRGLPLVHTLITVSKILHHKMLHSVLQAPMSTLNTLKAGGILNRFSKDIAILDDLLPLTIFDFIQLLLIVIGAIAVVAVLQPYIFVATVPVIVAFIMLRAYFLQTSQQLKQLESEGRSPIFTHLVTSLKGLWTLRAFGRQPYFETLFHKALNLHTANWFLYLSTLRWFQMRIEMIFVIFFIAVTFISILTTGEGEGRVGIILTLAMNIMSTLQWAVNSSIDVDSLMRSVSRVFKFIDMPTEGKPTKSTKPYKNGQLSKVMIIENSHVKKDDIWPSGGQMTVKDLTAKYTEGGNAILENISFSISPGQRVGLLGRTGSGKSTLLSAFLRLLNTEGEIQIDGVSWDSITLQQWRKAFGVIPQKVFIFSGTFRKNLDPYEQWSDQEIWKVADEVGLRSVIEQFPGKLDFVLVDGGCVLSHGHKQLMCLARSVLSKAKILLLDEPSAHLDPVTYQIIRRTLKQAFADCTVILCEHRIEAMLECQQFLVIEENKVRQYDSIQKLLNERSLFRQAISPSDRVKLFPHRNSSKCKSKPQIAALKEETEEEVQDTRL

SMILES | EC30 [nM]
CC1CN(c2ncccc2C(=O)NS(=O)(=O)c2cccc(N3CCN(Cc4ccccn4)CC3)n2)C(C)(C)C1 (stereo not drawn) [Compound 2504, N—[[6-[4-(2-pyridylmethyl)piperazin-1-yl]-2-pyridyl]sulfonyl]-2-(2,2,4-trimethylpyrrolidin-1-yl)pyridine-3-carboxamide] | 3000 to 10000
Cc1cc(F)cc(-c2ccc(C(=O)NS(=O)(=O)c3cccnc3N)c(N3C[C@@H](C)CC3(C)C)n2)c1 [Compound 2505, N-[(2-amino-3-pyridyl)sulfonyl]-6-(3-fluoro-5-methyl-phenyl)-2-[(4S)-2,2,4-trimethylpyrrolidin-1-yl]pyridine-3-carboxamide] | < 3000
COC(=O)N1CCN(c2cccc(S(=O)(=O)NC(=O)c3cccnc3N3CC(C)CC3(C)C)n2)CC1 (stereo not drawn) [Compound 2506, methyl 4-[6-[[2-(2,2,4-trimethylpyrrolidin-1-yl)pyridine-3-carbonyl]sulfamoyl]-2-pyridyl]piperazine-1-carboxylate] | 3000 to 10000
CC1CN(c2ncccc2C(=O)NS(=O)(=O)c2cccc(OCc3ccoc3)n2)C(C)(C)C1 (stereo not drawn) [Compound 2507, N—[[6-(3-furylmethoxy)-2-pyridyl]sulfonyl]-2-(2,2,4-trimethylpyrrolidin-1-yl)pyridine-3-carboxamide] | < 3000
CC(C)COc1cc(F)cc(-c2ccc(C(=O)NS(=O)(=O)N3CC(O)CC(F)(F)C3)c(N3C[C@@H](C)CC3(C)C)n2)c1 (stereo partly drawn) [Compound 2508, N-[(3,3-difluoro-5-hydroxy-1-piperidyl)sulfonyl]-6-(3-fluoro-5-isobutoxy-phenyl)-2-[(4S)-2,2,4-trimethylpyrrolidin-1-yl]pyridine-3-carboxamide] | < 3000
CC1CN(c2ncccc2C(=O)NS(=O)(=O)c2cccc(Oc3ccccc3)n2)C(C)(C)C1 (stereo not drawn) [Compound 2509, N-[(6-phenoxy-2-pyridyl)sulfonyl]-2-(2,2,4-trimethylpyrrolidin-1-yl)pyridine-3-carboxamide] | < 3000
CC1CN(c2ncc(C3=CCC(C(F)(F)F)CC3)cc2C(=O)NS(=O)(=O)c2cccc(N)n2)C(C)(C)C1 (stereo not drawn) [Compound 2510, N-[(6-amino-2-pyridyl)sulfonyl]-5-[4-(trifluoromethyl)cyclohexen-1-yl]-2-(2,2,4-trimethylpyrrolidin-1-yl)pyridine-3-carboxamide] | < 3000
CCOc1cc(C)cc(-c2ccc(C(=O)NS(=O)(=O)c3cccc(N)n3)c(Oc3c(C)cc(C)cc3C)n2)n1 [Compound 2511, N-[(6-amino-2-pyridyl)sulfonyl]-6-(6-ethoxy-4-methyl-2-pyridyl)-2-(2,4,6-trimethylphenoxy)pyridine-3-carboxamide] | < 3000
CCOc1cc(C)cc(-c2ccc(C(=O)NS(=O)(=O)c3ccc[nH]c3=O)c(N3C[C@@H](C)CC3(C)C)n2)c1 [Compound 2512, 6-(3-ethoxy-5-methyl-phenyl)-N-[(2-oxo-1H-pyridin-3-yl)sulfonyl]-2-[(4S)-2,2,4-trimethylpyrrolidin-1-yl]pyridine-3-carboxamide] | < 3000
CC1CN(c2ncccc2C(=O)NS(=O)(=O)c2cccc(Nc3c(F)cccc3F)n2)C(C)(C)C1 (stereo not drawn) [Compound 2513, N—[[6-(2,6-difluoroanilino)-2-pyridyl]sulfonyl]-2-(2,2,4-trimethylpyrrolidin-1-yl)pyridine-3-carboxamide] | 3000 to 10000
C[C@@H]1CN(c2nc(-c3ccccc3OC(F)(F)F)ccc2C(=O)NS(=O)(=O)c2ccc[nH]c2=O)C(C)(C)C1 [Compound 2514, N-[(2-oxo-1H-pyridin-3-yl)sulfonyl]-6-[2-(trifluoromethoxy)phenyl]-2-[(4S)-2,2,4-trimethylpyrrolidin-1-yl]pyridine-3-carboxamide] | < 3000
CC(C)Oc1cccc(-c2ccc(C(=O)NS(=O)(=O)c3cccnc3N)c(N3C[C@@H](C)CC3(C)C)n2)c1 [Compound 2515, N-[(2-amino-3-pyridyl)sulfonyl]-6-(3-isopropoxyphenyl)-2-[(4S)-2,2,4-trimethylpyrrolidin-1-yl]pyridine-3-carboxamide] | < 3000
C[C@@H]1CN(c2nc(-c3ccc4c(c3)OCCO4)ccc2C(=O)NS(=O)(=O)c2ccc[nH]c2=O)C(C)(C)C1 [Compound 2516, 6-(2,3-dihydro-1,4-benzodioxin-6-yl)-N-[(2-oxo-1H-pyridin-3-yl)sulfonyl]-2-[(4S)-2,2,4-trimethylpyrrolidin-1-yl]pyridine-3-carboxamide] | 3000 to 10000
CC1CN(c2ncccc2C(=O)NS(=O)(=O)c2cccc(Nc3cccc(N(C)C)c3)n2)C(C)(C)C1 (stereo not drawn) [Compound 2517, N—[[6-[3-(dimethylamino)anilino]-2-pyridyl]sulfonyl]-2-(2,2,4-trimethylpyrrolidin-1-yl)pyridine-3-carboxamide] | < 3000
CC1CN(c2ncccc2C(=O)NS(=O)(=O)c2cccc(N3CCc4ccc(F)cc4C3)n2)C(C)(C)C1 (stereo not drawn) [Compound 2518, N—[[6-(7-fluoro-3,4-dihydro-1H-isoquinolin-2-yl)-2-pyridyl]sulfonyl]-2-(2,2,4-trimethylpyrrolidin-1-yl)pyridine-3-carboxamide] | < 3000
Cc1ccc2cc(C(=O)NS(=O)(=O)c3cccc(N)n3)c(N3C[C@@H](C)CC3(C)C)nc2c1 [Compound 2519, N-[(6-amino-2-pyridyl)sulfonyl]-7-methyl-2-[(4S)-2,2,4-trimethylpyrrolidin-1-yl]quinoline-3-carboxamide] | < 3000
C[C@@H]1CN(c2nc(C(C)(C)C)c(C3=CCN(C(=O)NC4CCCCC4)CC3)cc2C(=O)NS(=O)(=O)c2cccc(N)n2)C(C)(C)C1 [Compound 2520, N-[(6-amino-2-pyridyl)sulfonyl]-6-tert-butyl-5-[1-(cyclohexylcarbamoyl)-3,6-dihydro-2H-pyridin-4-yl]-2-[(4S)-2,2,4-trimethylpyrrolidin-1-yl]pyridine-3-carboxamide] | 3000 to 10000
CC1CN(c2ncc(-c3ccc(C(C)(C)C#N)cc3)cc2C(=O)NS(=O)(=O)c2cccc(N)n2)C(C)(C)C1 (stereo not drawn) [Compound 2521, N-[(6-amino-2-pyridyl)sulfonyl]-5-[4-(1-cyano-1-methyl-ethyl)phenyl]-2-(2,2,4-trimethylpyrrolidin-1-yl)pyridine-3-carboxamide] | < 3000
C[C@@H]1CN(c2nc(-c3ccc4c(c3)OCCO4)ccc2C(=O)NS(=O)(=O)c2cccnc2N)C(C)(C)C1 [Compound 2522, N-[(2-amino-3-pyridyl)sulfonyl]-6-(2,3-dihydro-1,4-benzodioxin-6-yl)-2-[(4S)-2,2,4-trimethylpyrrolidin-1-yl]pyridine-3-carboxamide] | < 3000
CC1CN(c2ncccc2C(=O)NS(=O)(=O)c2cccc(Oc3ccc4c(c3)CCCC4=O)n2)C(C)(C)C1 (stereo not drawn) [Compound 2523, N—[[6-(1-oxotetralin-6-yl)oxy-2-pyridyl]sulfonyl]-2-(2,2,4-trimethylpyrrolidin-1-yl)pyridine-3-carboxamide] | 3000 to 10000
CC1CN(c2ncccc2C(=O)NS(=O)(=O)c2cccc(OCc3ccc(F)cc3)n2)C(C)(C)C1 (stereo not drawn) [Compound 2524, N—[[6-[(4-fluorophenyl)methoxy]-2-pyridyl]sulfonyl]-2-(2,2,4-trimethylpyrrolidin-1-yl)pyridine-3-carboxamide] | < 3000
CCOc1ccc(-c2ccc(C(=O)NS(=O)(=O)N3CC[C@H](N)C3)c(N3C[C@@H](C)CC3(C)C)n2)cc1 [Compound 2525, N-[(3S)-3-aminopyrrolidin-1-yl]sulfonyl-6-(4-ethoxyphenyl)-2-[(4S)-2,2,4-trimethylpyrrolidin-1-yl]pyridine-3-carboxamide] | 3000 to 10000
CCOc1cccc(Nc2cccc(S(=O)(=O)NC(=O)c3cccnc3N3CC(C)CC3(C)C)n2)c1 (stereo not drawn) [Compound 2526, N—[[6-(3-ethoxyanilino)-2-pyridyl]sulfonyl]-2-(2,2,4-trimethylpyrrolidin-1-yl)pyridine-3-carboxamide] | < 3000
COc1cc(F)cc(-c2ccc(C(=O)NS(=O)(=O)c3ccc[nH]c3=O)c(N3C[C@@H](C)CC3(C)C)n2)c1 [Compound 2527, 6-(3-fluoro-5-methoxy-phenyl)-N-[(2-oxo-1H-pyridin-3-yl)sulfonyl]-2-[(4S)-2,2,4-trimethylpyrrolidin-1-yl]pyridine-3-carboxamide] | < 3000
CCCOc1cccc(S(=O)(=O)NC(=O)c2cccnc2N2CC(C)CC2(C)C)n1 (stereo not drawn) [Compound 2528, N-[(6-propoxy-2-pyridyl)sulfonyl]-2-(2,2,4-trimethylpyrrolidin-1-yl)pyridine-3-carboxamide] | < 3000
CCCCOCCCNc1cccc(S(=O)(=O)NC(=O)c2cccnc2N2CC(C)CC2(C)C)n1 (stereo not drawn) [Compound 2529, N—[[6-(3-butoxypropylamino)-2-pyridyl]sulfonyl]-2-(2,2,4-trimethylpyrrolidin-1-yl)pyridine-3-carboxamide] | < 3000
COc1ccc(C)cc1-c1ccc(C(=O)NS(=O)(=O)c2ccc[nH]c2=O)c(N2C[C@@H](C)CC2(C)C)n1 [Compound 2530, 6-(2-methoxy-5-methyl-phenyl)-N-[(2-oxo-1H-pyridin-3-yl)sulfonyl]-2-[(4S)-2,2,4-trimethylpyrrolidin-1-yl]pyridine-3-carboxamide] | < 3000
CCN(CC)c1ccc(Nc2cccc(S(=O)(=O)NC(=O)c3cccnc3N3CC(C)CC3(C)C)n2)cc1 (stereo not drawn) [Compound 2531, N—[[6-[4-(diethylamino)anilino]-2-pyridyl]sulfonyl]-2-(2,2,4-trimethylpyrrolidin-1-yl)pyridine-3-carboxamide] | < 3000
CC1CN(c2ncccc2C(=O)NS(=O)(=O)c2cccc(OCc3ccc(F)c(F)c3)n2)C(C)(C)C1 (stereo not drawn) [Compound 2533, N—[[6-[(3,4-difluorophenyl)methoxy]-2-pyridyl]sulfonyl]-2-(2,2,4-trimethylpyrrolidin-1-yl)pyridine-3-carboxamide] | < 3000
CC(C)COc1cc(F)cc(-c2ccc(C(=O)NS(=O)(=O)N3C[C@@H](O)[C@H](O)C3)c(N3C[C@@H](C)CC3(C)C)n2)c1 [Compound 2534, N-[(3R,4R)-3,4-dihydroxypyrrolidin-1-yl]sulfonyl-6-(3-fluoro-5-isobutoxy-phenyl)-2-[(4S)-2,2,4-trimethylpyrrolidin-1-yl]pyridine-3-carboxamide] | < 3000
